Tests used:
[1] = cited from earlier work; for Increase of exposure with KTZ: PZQ metabolism inhibited by KTZ
HLM [2] = assay: Intrinsic clearance, substrate depletion approach; type: in vitro ADME, human; details: HLM, substrate depletion, well‐stirred model
Protocol: The generic conditions were previously described by Masimirembwa and co‐workers. ^24 , ^25 Each reaction mixture consisted of substrate incubated with appropriate enzyme, substrate, and NADPH in potassium phosphate buffer pH 7.4 in a final volume of 200 µL. The substrate was diluted to 40% ACN so that the percent organic component in the final solution was maintained at 1%. The reactions were quenched with 3 volumes of stop solution containing ACN and 0.8% formic acid at 0, 5, 10, 20, 30, 40, and 60 minutes. This was followed by centrifugation at 4500 g for 20 minutes. An aliquot (50 µL) supernatant was collected and diluted (1:1) in water prior to LC‐MS/MS analysis.
Each reaction was monitored over 7 time points.
(§1) The well‐stirred model was used to estimate the hepatic clearance (CLH) due to metabolism.

[3] = Simcyp prediction of total hepatic clearance; design: species or system human
Protocol: The clearance of the incubation mixture was expressed as μL/min/pmol for rCYP.
as §1

HLM [4] = assay: Enzyme kinetics of hydroxylated metabolites formation; type: in vitro ADME, human
Protocol: The reactions were carried out in duplicate at each time point. Incubation conditions used for the determination of K M and V max were optimized for linearity with respect to time and protein concentrations. […] Metabolites were analyzed by LC‐MS/MS as described below. The K M and V max values of each marker substrate were determined using nonlinear least squares regression analysis in GraFit software (version 3.0, Erithacus Software Limited) and SigmaPlot Enzyme Kinetics Module for Windows 7.0 (SPSS, Inc). […]

[5] = cited from earlier work
CYP3A4/5 = assay: CYP selective diagnostic inhibition studies in HLM, ketoconazole; type: in vitro ADME, human; details: ketoconazole 10 µmol/L
Protocol: (§2) Reactions were carried out in triplicate in 96 well plates. Each reaction was measured at 2 time points, that is at 0 and 30 minutes. […] Furafylline, KTZ, ticlopidine, and quinidine were used as diagnostic inhibitors for CYP 1A2, 3A4/5, 2C19 and 2D6, respectively. The reactions were initiated by addition of NADPH after a pre‐incubation of 5 minutes at 37°C. All reactions were terminated by the addition of 150 µL ice‐cold ACN. Internal standard (0.2 µmol/L DPZ) was added to ACN prior to termination of the assay. This was followed by centrifugation at 4500 g for 20 minutes. An aliquot (50 µL) supernatant was collected and 5 µL was injected and analyzed by liquid chromatography/tandem mass spectrometry (LC/MS/MS). The percent effect of each inhibitor was the estimated contribution of the inhibited CYP calculated using the relationship below: %contribution=amount remaining with inhibitor‐amount remaining without inhibitor/amount remaining without inhibitor×100.

CYP2D6 = assay: CYP selective diagnostic inhibition studies in HLM, quinidine; type: in vitro ADME, human; details: quinidine 10 µmol/L
Protocol: as §2

CYP1A2 [6] = target: T1, CYP1A2 (Homo sapiens, UniProt P05177); assay: Enzyme kinetics of hydroxylated metabolites formation; type: in vitro ADME; design: purchased CYPEX CYP001; host or cells: Escherichia coli; details: CYP1A2, formation of cis‐4‐OH‐PZQ
T1 sequence (P05177 1-516): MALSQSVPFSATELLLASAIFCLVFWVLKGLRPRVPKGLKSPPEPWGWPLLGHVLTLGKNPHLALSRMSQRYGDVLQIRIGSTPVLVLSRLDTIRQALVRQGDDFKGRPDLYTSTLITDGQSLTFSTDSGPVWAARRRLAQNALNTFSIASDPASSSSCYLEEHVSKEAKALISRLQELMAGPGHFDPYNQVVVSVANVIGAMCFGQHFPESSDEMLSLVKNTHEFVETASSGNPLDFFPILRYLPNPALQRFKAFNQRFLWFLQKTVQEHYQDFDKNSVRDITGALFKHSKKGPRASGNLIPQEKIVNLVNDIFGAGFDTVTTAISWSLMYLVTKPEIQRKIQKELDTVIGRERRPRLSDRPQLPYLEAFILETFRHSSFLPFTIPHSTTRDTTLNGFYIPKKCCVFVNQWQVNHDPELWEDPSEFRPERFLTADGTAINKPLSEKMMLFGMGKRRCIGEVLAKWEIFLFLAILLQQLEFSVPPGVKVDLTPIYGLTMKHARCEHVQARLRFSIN
Protocol: (§3) The reactions were carried out in duplicate at each time point. Incubation conditions used for the determination of K M and V max were optimized for linearity with respect to time and protein concentrations. […] Metabolites were analyzed by LC‐MS/MS as described below. The K M and V max values of each marker substrate were determined using nonlinear least squares regression analysis in GraFit software (version 3.0, Erithacus Software Limited) and SigmaPlot Enzyme Kinetics Module for Windows 7.0 (SPSS, Inc).
as §1

CYP1A2 [7] = assay: CYP selective diagnostic inhibition studies in HLM, furafylline; type: in vitro ADME, human; details: furafylline 10 µmol/L
Protocol: as §2

[8] = cited from earlier work; remark: listed apart in the source
CYP2C19 [9] = target: CYP2C19 (Homo sapiens, UniProt P33261); assay: Enzyme kinetics of hydroxylated metabolites formation; type: in vitro ADME; design: purchased CYPEX CYP008; host or cells: Escherichia coli; details: CYP2C19, formation of cis‐4‐OH‐PZQ
Protocol: as §3, §1

CYP2C19 [10] = assay: CYP selective diagnostic inhibition studies in HLM, ticlopidine; type: in vitro ADME, human; details: ticlopidine 10 µmol/L
Protocol: as §2

CYP2C19 (Homo sapiens, UniProt P33261), sequence (P33261 whole entry): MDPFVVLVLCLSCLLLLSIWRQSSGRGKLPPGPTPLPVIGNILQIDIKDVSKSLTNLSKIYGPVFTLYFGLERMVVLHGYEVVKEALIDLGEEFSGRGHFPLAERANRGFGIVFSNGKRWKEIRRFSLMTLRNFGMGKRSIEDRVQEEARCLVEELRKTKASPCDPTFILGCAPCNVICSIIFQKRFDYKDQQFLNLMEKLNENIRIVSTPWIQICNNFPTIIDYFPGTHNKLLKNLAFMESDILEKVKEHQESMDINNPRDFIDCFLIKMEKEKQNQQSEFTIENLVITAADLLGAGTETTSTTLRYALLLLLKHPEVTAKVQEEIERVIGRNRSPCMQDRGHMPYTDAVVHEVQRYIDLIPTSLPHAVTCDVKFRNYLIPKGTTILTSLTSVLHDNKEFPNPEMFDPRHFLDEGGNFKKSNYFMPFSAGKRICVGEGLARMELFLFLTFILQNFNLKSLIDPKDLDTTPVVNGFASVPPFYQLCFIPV

Compound	Increase of exposure with KTZ [1] [%]	Predicted CLH (HLM [2]) [mL/min/kg]	Predicted total CLH (Simcyp) ([3]; metabolite formation assay) [mL/min/kg]	Predicted total CLH (Simcyp) ([3]; substrate depletion assay) [mL/min/kg]	K M [SD] (HLM [4]; formation of X‐OH‐PZQ)	V max [SD] (HLM [4]; formation of X‐OH‐PZQ)	K M [SD] (HLM [4]; formation of cis‐4‐OH‐PZQ)	V max [SD] (HLM [4]; formation of cis‐4‐OH‐PZQ)	Oral dose eliminated renally (unchanged drug and metabolites) [5]	Systemic bioavailability [5] [%]	Increase in bioavailability ([5]; co‐administration with cimetidine) [%]	Drug excreted within 24 hours ([5]; in man)	Contribution of CYP3A4/5 (CYP3A4/5) [%]	Contribution of CYP2D6 (CYP2D6) [%]	CLuH,int (CYP1A2 [6]) [mL/min/kg]	Contribution of CYP1A2 (CYP1A2 [7]) [%]	Fraction unbound in plasma (fu) [8]	CLuH,int (CYP2C19 [9]) [mL/min/kg]	Contribution of CYP2C19 (CYP2C19 [10]) [%]	Amount relative to cis 4‐OH PZQ in vivo ([1]; ref NLeya et al (19)) [times]
O=C1CN(C(=O)[C@H]2CC[C@@H](O)CC2)CC2c3ccccc3CCN12 (stereo partly drawn) [cis‐4‐OH PZQ, cis‐4‐hydroxy‐PZQ]	57	–	–	–	–	–	–	–	–	–	–	–	–	–	–	–	–	–	–	–
O=C(C1CCCCC1)N1CC(=O)N2CCc3ccccc3C2C1 (stereo not drawn) [PZQ, praziquantel]	–	11.70	11.44	3.656	118.6 [35.79] µmol/L	11.10 [2.074] nmol/min/mg protein	32.60 [3.982] µmol/L	0.5978 [0.028] nmol/min/mg protein	More than 80%	< 20	100	more than 80%	97	35	6.870	−54	0.2	4.600	127	–
O=C(C1CCC(O)CC1)N1CC(=O)N2CCc3ccccc3C2C1 (stereo not drawn) [trans‐4‐OH PZQ, trans‐4‐hydroxy‐PZQ]	67	–	–	–	–	–	–	–	–	–	–	–	–	–	–	–	–	–	–	30
